System: MDA-MB-231-luc-D3H2LN human breast carcinoma xenograft
Assay: MDA-MB-231 xenograft study
Assay type: in vivo, mouse
Conditions: orally dosed at 30 mg/kg twice daily
Protocol: MDA-MB-231 Xenograft Study
To evaluate the in vivo anti-cancer activity compounds of formula I, a MDA-MB-231-luc-D3H2LN human breast carcinoma xenograft was employed. Briefly, MDA-MB-231-luc-D3H2LN cells were obtained from Xenogen and expanded in Minimal Essential Media (MEM) with EBSS which was modified with 1% L-glutamine and supplemented with 10% FBS, 1% PSG, 1% non-essential amino acids, and 1% sodium pyruvate. The growth environment was maintained in an incubator with a 5% CO2 atmosphere at 37° C. Cells were harvested and re-suspended using 50% serum-free media and 50% Matrigel® to generate a stock concentration of 5×10^6 cells/mL.
Six to 7 week old female C.B-17/IcrHsd-PrkdcscidLystbg mice were injected with 200 μL of cell suspension subcutaneously, just below the right axilla. All procedures carried out in this experiment were conducted in compliance with all the laws, regulations and guidelines of the National Institutes of Health (NIH). Treatment began when the mean tumor burden was approximately 150 mg. All mice were dosed with test compound by oral gavage. Body weights and tumor measurements were recorded three times weekly. […] Images were analyzed using Living Image (Xenogen, Alameda, Calif.) software. […]

SMILES: COCCN1CCN(C(=O)Nc2ccc(Oc3ccnc(-c4cnn(C)c4)c3)c(C)n2)C1=O [Example 18, 3-(2-methoxyethyl)-N-(6-methyl-5-((2-(1-methyl-1H-pyrazol-4-yl)pyridin-4-yl)oxy)pyridin-2-yl)-2-oxoimidazolidine-1-carboxamide]
- tumor growth inhibition: 51%
